The subject of test [1] is MDA-MB 231. Put plainly: EdU incorporation cell proliferation assay, 24 h. The settings on record: for % Inhibition ± SE of cell proliferation: 24 h at EC50, normalized with the control; for % EdU +ve ± SE (S-phase cells): 24 h treatment at EC50 concentration. Format: cell-based, human. Here is the method: (§1) For this purpose, ten cancer cell lines (i.e., MDA-MB 231, SK-BR-3, MCF-7, A2058, SK-MEL-28, AGS, HepG-2, PANC-1, H1299 and Hela) originating from breast, melanoma, stomach, hepatic, pancreatic, lung and cervical tumors were analyzed in parallel with control samples (i.e., the same cells treated only with 0.2% (v/v) DMSO). […] Subsequently, the treated cells were allowed to incorporate 5-ethynyl-2′-deoxyuridine (EdU) into replicating DNA according to the protocol described in detail in the Experimental Section. EdU, a thymidine analog, can be incorporated into DNA in vivo and detected later by using copper-catalyzed azide–alkyne cycloaddition (click reaction) without prior DNA denaturation. The pool of cells in the S phase can be then easily detected by fluorescence (FL) microscopy or by flow cytometry by analyzing the incorporation of EdU in replicating DNA of single cells. In this study, after EdU incorporation, the nuclei of the entire cell population were stained with Hoechst and imaged by confocal microscopy (Experimental Section). EdU-positive nuclei, marked by green FL, as well as the total number of nuclei, marked by blue FL, were enumerated by applying the Icy image analysis algorithm on the digital images acquired by confocal microscopy.
(§2) Human cancer cells were plated onto sterile glass coverslips (10-mm diameter, 5161063, ThermoFisher Scientific, Waltham, MA, USA) in 24-well tissue culture plates, at a density 5 times the density of cells seeded in 96-well plate and at a final medium volume of 500 μL. In order to obtain homogeneous plating, 250 μL of the medium was added directly to the wells already containing coverslips. Using a tip perpendicularly, coverslips were pressed in order to ensure their attachment to the bottom of the well. The cells were then seeded by adding 250 μL of single-cell suspension drop by drop following a cross path. Immediately after seeding, the plate was shaken back and forth at least ten times to achieve homogeneous plating. The cells were allowed to adhere overnight (~16 h) at 37 °C and 5% (v/v) CO2. The next day, a volume of 500 μL fresh medium was added to each well and the treatment with OOPs was initiated by adding directly to the wells 2 μL of OOPs from the 500× stock in DMSO and immediately mixed afterward by pipetting. […] Control cells were prepared under the same experimental conditions using DMSO instead of the OOPs’ solutions in DMSO at the same final concentration (0.2% (v/v) DMSO). […] Each condition was performed in duplicate. After treatment with the OOPs, live proliferating mammalian cells were labeled with 5-ethynyl-2’-deoxyuridine (EdU), a nucleoside analog of thymidine, using the Cell proliferation kit III (EdU-FM, PK-CA724-488FM, Promokine, Heidelberg, Germany). More specifically, a 20 μM EdU solution from a 10 mM stock in DMSO was prepared in a fresh culture medium. Culture supernatant was removed from treated cells to leave only 250 μL. An equal volume of 20 μM EdU solution was added and mixed with the medium to obtain a 10 μΜ EdU final concentration. The treated cells were incubated for the desired time of pulse length (2–4 h) under conditions optimal for each cell type depending on each cell line’s doubling time. Following incubation, cells were washed twice with PBS, then fixed with 4% (w/v) paraformaldehyde in PBS for 15 min at room temperature (RT), and subsequently washed twice with 3% (w/v) BSA for 5 min each time. Cells were permeabilized by incubation (20 min, RT, in the dark) with 0.5% (v/v) Triton-X 100 in PBS. Following permeabilization the cells were washed twice with 3% (w/v) BSA in PBS and incubated for 30 min with the reaction cocktail, according to the instructions of the Cell proliferation kit III (EdU-488; FM). After staining for replicating DNA, the cells were washed three times with 3% (w/v) BSA in PBS, and were then incubated (10 min, at RT) with Hoechst 33342 in PBS (1:10.000) to visualize all the nuclei. […]

Another test deals with AGS. Put plainly: EdU incorporation cell proliferation assay, 24 h. Format: cell-based, human. The following applies: for % Inhibition ± SE of cell proliferation: 24 h at EC50, normalized with the control; for % EdU +ve ± SE (S-phase cells): 24 h treatment at EC50 concentration. Here is the method: as §1, §2
The subject of the next test is SK-MEL-28. Put plainly: EdU incorporation cell proliferation assay, 24 h. Format: cell-based, human. The following applies: for % Inhibition ± SE of cell proliferation: 24 h at EC50, normalized with the control; for % EdU +ve ± SE (S-phase cells): 24 h treatment at EC50 concentration. As to the method:
as §1, §2

In another test the test system is PANC-1. Put plainly: EdU incorporation cell proliferation assay, 24 h. In kind it is cell-based, human. The settings on record: for % Inhibition ± SE of cell proliferation: 24 h at EC50, normalized with the control; for % EdU +ve ± SE (S-phase cells): 24 h treatment at EC50 concentration. Here is the method:
as §1, §2

The next test relates to HepG-2. Put plainly: EdU incorporation cell proliferation assay, 24 h. The settings on record: for % Inhibition ± SE of cell proliferation: 24 h at EC50, normalized with the control; for % EdU +ve ± SE (S-phase cells): 24 h treatment at EC50 concentration. In kind it is cell-based, human. As to the method: as §1, §2
Another test deals with H1299. Put plainly: EdU incorporation cell proliferation assay, 24 h. The settings on record: for % Inhibition ± SE of cell proliferation: 24 h at EC50, normalized with the control; for % EdU +ve ± SE (S-phase cells): 24 h treatment at EC50 concentration. Format: cell-based, human. As to the method:
as §1, §2

The test system of test [2] is SK-BR-3. Put plainly: EdU incorporation cell proliferation assay, 24 h. Format: cell-based, human. The settings on record: for % Inhibition ± SE of cell proliferation: 24 h at EC50, normalized with the control; for % EdU +ve ± SE (S-phase cells): 24 h treatment at EC50 concentration. Here is the method: as §1, §2
For a further test, the system named is Hela. Put plainly: EdU incorporation cell proliferation assay, 24 h. In kind it is cell-based, human. The settings on record: for % Inhibition ± SE of cell proliferation: 24 h at EC50, normalized with the control; for % EdU +ve ± SE (S-phase cells): 24 h treatment at EC50 concentration. As to the method: as §1, §2
Another test has as its system WJ-MSC. Put plainly: ATP-based luminescence cell viability assay (ViaLight), 72 h. The arrangement: species or system human. The following applies: WJ-MSC (mesenchymal cells), 72 h treatment, read-out: EC50 Values of Olive Oil Polyphenols.
Test [3] concerns SK-BR-3. The following applies: cited from earlier work.
For test [4], the system named is MDA-MB 231. The following applies: cited from earlier work.

The values that follow come from paper PMC9820430, “New Affordable Methods for Large-Scale Isolation of Major Olive Secoiridoids and Systematic Comparative Study of Their Antiproliferative/Cytotoxic Effect on Multiple Cancer Cell Lines of Different Cancer Origins” (International Journal of Molecular Sciences, 2022).

Read-outs that look alike come from different tables or passages of the source. Marks after values point to notes of the source that are not given here.

Procedure for WJ-MSC: The antiproliferative/cytotoxic effects of the selected OOPs on each cell line were assessed by measuring the cellular ATP levels after 72 h treatments using an ATP-based luminescence assay [73]. […] The EC50 values were calculated by nonlinear regression (curve fit) using a sigmoidal dose–response equation (Figure 2A and Figure S2).
The OOPs tested in this study were first dissolved in an appropriate DMSO volume such as to prepare a final stock solution of 50 mM, which was further used to prepare various compound concentrations in DMSO-based solutions. The final DMSO concentration in the cell culture was maintained constant in all treated groups of any given experiment and never exceeded the value of 0.2% (v/v). For the treatment experiments, cells were plated in 96-well culture plates, in 100 μL of complete medium at a seeding density of 5000–10,000 cells/well—depending on cells’ size and doubling time—and were allowed to adhere overnight (~16 h). The next day, 150 μL of complete medium was added to each well and the cells were treated with various concentrations of OOPs. Each concentration was tested in triplicate and was repeated 2–3 times. To prepare the final concentration solutions, 0.5 μL of a 500× stock of each tested compound in DMSO was added directly into each well in a final volume of 250 μL culture medium and was gently mixed by pipetting. Control wells were prepared under the same experimental conditions by adding only DMSO at a final concentration of 0.2% (v/v). Compounds were not renewed during the entire period of cell exposure. All cells were cultured at 37 °C in a 5% (v/v) CO2 for 24, 48 or 72 h.
Briefly, after the treatment with OOPs, the adapted medium was removed from the dish wells and the cells were washed twice with medium without FBS. Then, the C-lysis (LT27-076) was diluted in PBS (1:2) and a volume of 50 μL was added to each well. Cells were incubated with C-lysis for at least 10 min. […] Cell viability was quantified by measuring luminescence using a multi-mode microplate reader Safire^2 Tecan (software Magellan V6.00 STD.2PC WIN.20000/XP).

For the compound `COC(=O)C1=COC(C)[C@@H](C=O)[C@@H]1CC(=O)OCCc1ccc(O)c(O)c1` (mixture of isomers) [3a,b, oleuropein aglycone], the “% Inhibition ± SE of cell proliferation” value in the test with MDA-MB 231 [1] is on record as 21.5 ± 2.1%; with AGS it was 28.9 ± 1.5 ^a %; in the test on SK-MEL-28, 24.7 ± 0.7 ^a %; in the test with PANC-1 it was 23.6 ± 0.8%; with HepG-2, 28.4 ± 0.1%; in the test with H1299, 29.1 ± 6.5%. Further, the results for the “% Inhibition ± SE of cell proliferation” value in the test with SK-BR-3 [2] and in the test on Hela were 16.9 ± 1.7% and 24.3 ± 2.1%, respectively. The “% EdU +ve ± SE (S-phase cells)” value in the test with MDA-MB 231 [1] is listed as 19.7 ± 3.1%; with AGS, 18.4 ± 1.5 ^a %; in the test on SK-MEL-28, 0.7 ± 0.3 ^a %; in the test with PANC-1 it was 21.9 ± 5.3%; with HepG-2, 10.6 ± 3.1%; in the test with H1299, 31.9 ± 5.9%. For the same compound, the “% EdU +ve ± SE (S-phase cells)” value in the test with SK-BR-3 [2] is 6.6 ± 3.5%; in the test on Hela, 20.9 ± 3.5%. The EC50 is 28.7 ± 0.3 µM with WJ-MSC (Homo sapiens); 47 µM with SK-BR-3 [3] (five days of treatment, ref Menendez et al. (2007) 17, read-out: concentration reducing cell viability by 50%); 53 µM in the test on MDA-MB 231 [4] (ref Mazzei et al. (2020) 27).

In the case of `C/C=C(/C=O)[C@@H](CC=O)CC(=O)OCCc1ccc(O)cc1` [compound 1, oleocanthal], the “% EdU +ve ± SE (S-phase cells)” value in the test with MDA-MB 231 [1] is on record as 29.1 ± 2.3%; in the test with AGS, 16.2 ± 4.4 ^a %; with SK-MEL-28 it was 15.0 ± 4.8 ^a %; in the test on PANC-1, 23.6 ± 5.8%; with HepG-2, 26.4 ± 1.5%; with H1299 it was 14.0 ± 1.9%. Also, the “% EdU +ve ± SE (S-phase cells)” value in the test on SK-BR-3 [2] was found to be 9.5 ± 3.9%. Further, the EC50 in the test on SK-BR-3 [3] (48 h treatment in HGF- and EGF-supplemented media, ref Siddique et al. (2019) 76, read-out: EC50) is 27.3 µM; with MDA-MB 231 [4] (48 or 72 h, different culture conditions), 10 to 18.5 µM.

With ligstroside aglycone [4a,b], the “% Inhibition ± SE of cell proliferation” value is listed as 8.2 ± 1.8% with MDA-MB 231 [1]; 31.6 ± 2.6% in the test on AGS; 4.7 ± 4.6 ^a % in the test on SK-MEL-28; 23.4 ± 2.7% with PANC-1; 27.0 ± 1.1% with HepG-2; 4.8 ± 3.1% in the test on SK-BR-3 [2]. Moreover, the “% Inhibition ± SE of cell proliferation” value with Hela worked out at 14.1 ± 6.3%. The “% EdU +ve ± SE (S-phase cells)” value is reported as 33.0 ± 2.8% with MDA-MB 231 [1]; 14.0 ± 0.5% with AGS; 20.8 ± 5.1 ^a % with SK-MEL-28; 22.1 ± 7.2% with PANC-1; 12.0 ± 2.0% with HepG-2; 18.8 ± 1.3% in the test on SK-BR-3 [2]. In the test with Hela, the “% EdU +ve ± SE (S-phase cells)” value is recorded as 31.2 ± 4.9%. The EC50 in the test on WJ-MSC is 39.3 ± 3.8 µM; in the test on SK-BR-3 [3] (5 day treatment, read-out: EC50), 26 ± 6 µM; with MDA-MB 231 [4] (48 h treatment, ref Busnena et al. (2013) 23) it was roughly 80 µM.

For the compound `C/C=C(/C=O)[C@@H](CC=O)CC(=O)OCCc1ccc(O)c(O)c1` [compound 2, oleacein], the “% Inhibition ± SE of cell proliferation” value in the test with MDA-MB 231 [1] is listed as 15.7 ± 2.4%; in the test on AGS, 31.0 ± 3.5%; with SK-MEL-28 it was 20.3 ± 4.0%; in the test with H1299, 47.8 ± 4.1%; in the test on SK-BR-3 [2] it was 16.2 ± 2.4%; in the test with Hela it was 23.6 ± 7.9%. The “% EdU +ve ± SE (S-phase cells)” value in the test with MDA-MB 231 [1] is reported as 25.5 ± 4.1%; in the test with AGS it was 14.7 ± 0.4%; in the test on SK-MEL-28, 1.8 ± 0.4%; with PANC-1, 37.6 ± 7.1%; in the test with H1299 it was 13.2 ± 3.5%; with SK-BR-3 [2], 7.4 ± 0.7%. Moreover, the “% EdU +ve ± SE (S-phase cells)” value with Hela came to 21.7 ± 6.5%. In addition, the EC50 in the test with WJ-MSC (Homo sapiens) was 28.2 ± 11.1 µM.
